Assays:
HMEC1 = experiment: Cell viability assay (MTT), HMEC1; assay type: cell-based, Human; details: MTT, 10% FBS, 6-day treatment, 1% DMSO
Protocol: (§1) Table 12: 6-day cell viability assay (MTT) in the presence of 10% Fetal Bovine Serum and 1% DMSO, in HMEC1, HCT116, MDA-MB-231, MCF7 and NIH3T3 cell lines. 3 10^3 to 15 10^3 cells were seeded in 48-well plates in growth medium containing 10% FBS, with or without various concentrations of test compounds. Cell cultures were fed every 3 days with the appropriate media. Cell viability was determined on day 6. Data were analyzed and IC50s were calculated from dose-response curves using GraphPad Prism. Results summarized in the tables are mean±SEM of 1 to 8 independent experiments.
(§2) In order to determine a compound's effect on cell viability, microculture tetrazolium assays (MTT) were performed as described by Carmichael et al. (1996) with modifications. Four human tumoral cell lines, namely HCT116 colon adenocarcinoma, H460 lung carcinoma, MCF-7 and MDA-MB-231 breast carcinoma cell lines, DLD1 colorectal adenocarcinoma, HeLa adenocarcinoma, HepG2 hepatocellular carcinoma. 3 immortalized but non tumorigenic cell lines, namely NIH3T3 mouse fibroblasts (American Type Culture Collection) and primary hepatocytes (Biopredic international), cultured according to their recommendations together with Human Microvasculature Endothelial Cell line HMEC1 (National Center for Infectious Diseases). Briefly, cells were seeded in 48-well plates 24 hours before drug addition. Cells were treated with 0 to 200 μM (11 concentrations) of compound solubilized in DMSO, adjusting the final concentration of DMSO to 1% in the well. 16 hours, and three or six days after treatment, 0.5 mg/ml MTT (Sigma) was added to the medium and cells were incubated for 1-5 hours at 37° C. before solubilization of formazan crystals in 100% DMSO. Absorbance was measured using a spectrophotometer at a wavelength of 550 nm. Data was analyzed using the GraphPad Prism software (GraphPad Software, Inc.), and IC50 (dose leading to 50% cell death) was calculated from the dose-response curves.

HCT116 = experiment: Cell viability assay (MTT), HCT116; assay type: cell-based, human; details: 10% FBS, 6-day treatment, 1% DMSO
Protocol: as §1
(§3) Table 13: 6-day cell viability assay (MTT) in the presence of 0.5% Fetal Bovine Serum and 1% DMSO, in HCT116 and MDA-MB-231 cell lines. 7.5 10^4 to 15 10^4 cells were seeded in 48-well plates in growth medium containing 10% FBS, with or without various concentrations of test compounds. Cell cultures were fed every 3 days with the appropriate media. Cell viability was determined on day 6. Data were analyzed and IC50s were calculated from dose-response curves using GraphPad Prism. Results summarized in the tables are mean±SEM of 1 to 2 independent experiments.
(§4) Table 14: 3-day cell viability assay (MTT) in the presence of 10% Fetal Bovine Serum and 1% DMSO, in DLD1, HCT116, MDA-MB-231, MCF7 and HeLa cells. 7.5 10^3 to 1.5 10^4 cells were seeded in 48-well plates in growth medium containing 10% FBS, with or without various concentrations of test compounds. Data were analyzed and IC50s were calculated from dose-response curves using GraphPad Prism. Results summarized in the tables are mean±SEM of 1 to 7 independent experiments.
(§5) Table 15: 16-hour cell viability assay (MTT) in the presence of 10% Fetal Bovine Serum and 1% DMSO, in HCT116, MDA-MB-231, NIH3T3, HepG2 and primary hepatocytes. 5 10^4 to 10 10^4 cells were seeded in 48-well plates in growth medium containing 10% FBS, with or without various concentrations of test compounds. Data were analyzed and IC50s were calculated from dose-reponse curves using GraphPad Prism. Results summarized in the tables are mean±SEM of 1 to 2 independent experiments.
as §2

NIH 3T3 = experiment: Cell viability assay (MTT), NIH 3T3; assay type: cell-based, mouse; details: Mus musculus, NIH3T3, 144 h, 10% FBS, 6-day treatment, 1% DMSO
Protocol: as §1, §5, §2

MDA-MB-231 = experiment: Cell viability assay (MTT), MDA-MB-231; assay type: cell-based, human; details: Homo sapiens, MDA-MB-231, 144 h, 10% FBS, 6-day treatment, 1% DMSO, read-out: IC50 μM, MDA-MB-231
Protocol: as §1, §3, §4, §5, §2

| SMILES | melting point | IC50 (HCT116; Homo sapiens, HCT-116, 144 h) | IC50 (HCT116) | IC50 (MDA-MB-231) | IC50 (HMEC1; Homo sapiens, HMEC-1, 144 h) | IC50 (HMEC1) | IC50 (NIH 3T3) |
| --- | --- | --- | --- | --- | --- | --- | --- |
| Cl.Cl.Cl.O=c1cc(CN2CCNCC2)occ1OCCCCCOc1ccnc2cc(Cl)ccc12 [EHT 0872, 5-(5-(7-Chloroquinolin-4-yloxy)pentyloxy)-2-((piperazin-1-yl)methyl)-4H-pyran-4-one trihydrochloride] | 164.7 °C | 9.3 µM |  |  | 28.4 µM |  |  |
| O=c1cc(COC2CCCCO2)occ1OCCCCCCCCSc1ccnc2cc(C(F)(F)F)ccc12 (stereo not drawn) [EHT 1006, 5-(8-(7-(Trifluoromethyl)quinolin-4-ylthio)octyloxy)-2-((tetrahydro-2H-pyran-2-yloxy)methyl)-4H-pyran-4-one] | 66.1 °C |  |  |  | < 10 µM | 9.5 µM |  |
| COCOCc1cc(=O)c(OCCCCCSc2ccnc3cc(C(F)(F)F)ccc23)co1 [EHT 2168, 2-Methoxymethoxymethyl-5-[5-(7-trifluoromethyl-quinolin-4-ylsulfanyl)-pentyloxy]-4H-pyran-4-one] | 122.1 °C (dec.) | 6 µM |  |  | 19.3 µM |  |  |
| CC(C)(C)OC(=O)N1CCN(Cc2cc(=O)c(OCCCCCOc3ccnc4cc(Cl)ccc34)co2)CC1 [EHT 2580, tert-Butyl 4-((5-(5-(7-chloroquinolin-4-yloxy)pentyloxy)-4-oxo-4H-pyran-2-yl)methyl)piperazine-1-carboxylate] | 130.2 °C |  |  |  |  |  |  |
| CN1CCN(Cc2cc(=O)c(OCCCCCOc3ncnc4ccccc34)co2)CC1 [EHT 4063, 5-(5-(Quinazolin-4-yloxy)pentyloxy)-2-((4-methylpiperazin-1-yl)methyl)-4H-pyran-4-one] | 78.2 °C | ~200 µM |  |  | ~200 µM |  |  |
| O=c1cc(COC2CCCCO2)occ1OCCCCSc1ccnc2cc(C(F)(F)F)ccc12 (stereo not drawn) [EHT 4745, 2-(Tetrahydro-pyran-2-yloxymethyl)-5-[4-(7-trifluoromethyl-quinolin-4-ylsulfanyl)-butoxy]-4H-pyran-4-one] | 97.3 °C (dec.) | 4.1 µM |  |  | < 10 µM | 9.8 µM |  |
| O=C(CCCCOc1coc(CN2CCOCC2)cc1=O)Nc1ccnc2cc(C(F)(F)F)ccc12 [EHT 6037, 5-(6-(Morpholinomethyl)-4-oxo-4H-pyran-3-yloxy)-N-(7-(trifluoromethyl)quinolin-4-yl)pentanamide] | 126.8 °C |  |  |  |  |  |  |
| O=c1cc(COC2CCCCO2)occ1OCCCCCCSc1ccnc2cc(C(F)(F)F)ccc12 (stereo not drawn) [EHT 6271, 2-(Tetrahydro-pyran-2-yloxymethyl)-5-[6-(7-trifluoromethyl-quinolin-4-ylsulfanyl)-hexyloxy]-4H-pyran-4-one] | 67.8 °C |  |  |  | < 10 µM | 9 µM |  |
| O=c1cc(CN2CCOCC2)occ1OCCOc1ccnc2cc(C(F)(F)F)ccc12 [EHT 6892, 5-(2-(7-(trifluoromethyl)quinolin-4-yloxy)ethoxy)-2-(morpholinomethyl)-4H-pyran-4-one] | 125.6 °C | 101 µM |  |  |  |  |  |
| CCN(CC)Cc1cc(=O)c(OCCCCCSc2ccnc3cc(C(F)(F)F)ccc23)co1 [EHT 7370, 2-((Diethylamino)methyl)-5-(5-(7-(trifluoromethyl)quinolin-4-ylthio)pentyloxy)-4H-pyran-4-one] | 71.2 °C | 4.4 µM |  |  | 12.1 µM |  |  |
| O=c1cc(CN2CCOCC2)occ1OCc1ccccc1CSc1ccnc2cc(C(F)(F)F)ccc12 [EHT 9069, 5-((2-((7-(Trifluoromethyl)quinolin-4-ylthio)methyl)phenyl)methoxy)-2-(morpholinomethyl)-4H-pyran-4-one] | 71.6 °C | 15.5 µM |  | 13.5 µM | 34.8 µM |  | 41.3 µM |

Second part, led by results:

| melting point | IC50 (HCT116; Homo sapiens, HCT-116, 144 h) | IC50 (HCT116) | IC50 (MDA-MB-231) | SMILES | IC50 (HMEC1; Homo sapiens, HMEC-1, 144 h) | IC50 (HMEC1) | IC50 (NIH 3T3) |
| --- | --- | --- | --- | --- | --- | --- | --- |
| 38.2 °C |  |  |  | O=c1cc(CCl)occ1OCCCCCSc1ccnc2cc(C(F)(F)F)ccc12 [EHT 1494, 2-Chloromethyl-5-[5-(7-trifluoromethyl-quinolin-4-ylsulfanyl)-pentyloxy]-4H-pyran-4-one] |  |  |  |
| 99.5 °C | < 4 µM | 2.3 µM |  | CC(=O)N1CCN(Cc2cc(=O)c(OCCCCCSc3ccnc4cc(C(F)(F)F)ccc34)co2)CC1 [EHT 3980, 5-(5-(7-(Trifluoromethyl)quinolin-4-ylthio)pentyloxy)-2-((4-acetylpiperazin-1-yl)methyl)-4H-pyran-4-one] | 38.5 µM |  |  |
| 133.2 °C (dec.) |  |  |  | O=c1cc(CO)occ1OCCCCCSc1ccnc2cc(C(F)(F)F)ccc12 [EHT 5909, 2-Hydroxymethyl-5-[5-(7-trifluoromethyl-quinolin-4-ylsulfanyl)-pentyloxy]-4H-pyran-4-one] |  |  |  |
| 66.3 °C |  |  |  | CS(=O)(=O)N1CCN(Cc2cc(=O)c(OCCCCCSc3ccnc4cc(C(F)(F)F)ccc34)co2)CC1 [EHT 8366, 5-(5-(7-(Trifluoromethyl)quinolin-4-ylthio)pentyloxy)-2-((4-Methylsulfonylpiperazin-1-yl)methyl)-4H-pyran-4-one] |  |  |  |
| 107 °C | 12.1 µM |  |  | O=c1cc(CF)occ1OCCCCCSc1ccnc2cc(C(F)(F)F)ccc12 [EHT 8817, 5-(5-(7-(Trifluoromethyl)quinolin-4-ylthio)pentyloxy)-2-(fluoromethyl)-4H-pyran-4-one] | 41 µM |  |  |
| 108.9 °C | < 4 µM | 2.3 µM |  | O=c1cc(CN2CCCCC2)occ1OCCCCCSc1ccnc2cc(C(F)(F)F)ccc12 [EHT 9317, 5-(5-(7-(Trifluoromethyl)quinolin-4-ylthio)pentyloxy)-2-((piperidin-1-yl)methyl)-4H-pyran-4-one] | 11.7 µM |  |  |
